In ChEMBL document CHEMBL4339208, “6-Bromoindolglyoxylamido derivatives as antimicrobial agents and antibiotic enhancers” (Bioorg Med Chem, 2019):
pIC50: −log10 of the molar value. ≈ marks a conversion by molar mass, not a printed value. Calls of active or inactive are those of the source. No cut-off for these calls is given here.

What was measured:
Escherichia coli [1] = experiment: Antibacterial activity against Escherichia coli ATCC 25922 measured after 18 hrs by broth dilution method; assay type: functional; details: ATCC 25922, 18 h
Pseudomonas aeruginosa [2] = experiment: Antibacterial activity against Pseudomonas aeruginosa ATCC 27853 measured after 18 hrs by broth dilution method; assay type: functional; details: ATCC 27853, 18 h
Klebsiella pneumoniae [3] = experiment: Antibacterial activity against Klebsiella pneumoniae ATCC 700603 measured after 18 hrs by resazurin dye based assay; assay type: functional; details: Klebsiella pneumoniae, 700603, 18 h
Acinetobacter baumannii [4] = experiment: Antibacterial activity against Acinetobacter baumannii ATCC 19606 measured after 18 hrs by resazurin dye based assay; assay type: functional; details: ATCC 19606 = CIP 70.34 = JCM 6841, 18 h
Pseudomonas aeruginosa [5] = experiment: Potentiation of nalidixic acid-induced antibacterial activity against Pseudomonas aeruginosa ATCC 27853 assessed as concentration required to restore 2 ug/ml nalidixic acid activity measured after 18 hrs; assay type: functional
Escherichia coli [6] = experiment: Potentiation of nalidixic acid-induced antibacterial activity against Escherichia coli ATCC 25922 assessed as concentration required to restore 2 ug/ml nalidixic acid activity measured after 18 hrs; assay type: functional
Klebsiella pneumoniae [7] = experiment: Potentiation of nalidixic acid-induced antibacterial activity against Klebsiella pneumoniae ATCC 700603 assessed as concentration required to restore 2 ug/ml nalidixic acid activity measured after 18 hrs; assay type: functional
Acinetobacter baumannii [8] = experiment: Potentiation of nalidixic acid-induced antibacterial activity against Acinetobacter baumannii ATCC 19606 assessed as concentration required to restore 2 ug/ml nalidixic acid activity measured after 18 hrs; assay type: functional, ATCC 19606 = CIP 70.34 = JCM 6841
Staphylococcus aureus = experiment: Antibacterial activity against Staphylococcus aureus ATCC 25923 measured after 18 hrs by broth dilution method; assay type: functional; details: ATCC 25923, 18 h
[9] = system: Staphylococcus intermedius; experiment: Antibacterial activity against Staphylococcus intermedius 1051997 measured after 18 hrs by broth dilution method; assay type: functional; details: Staphylococcus intermedius, 1051997, 18 h
Candida albicans [10] = experiment: Antifungal activity against Candida albicans ATCC 90028 measured after 36 hrs; assay type: functional; details: ATCC 90028, 36 h
Cryptococcus neoformans [11] = experiment: Antifungal activity against Cryptococcus neoformans ATCC 208821 measured after 36 hrs by resazurin dye based assay; assay type: functional; details: ATCC 208821, 36 h
Klebsiella pneumoniae [12] = experiment: Antibacterial activity against Klebsiella pneumoniae ATCC 700603 at 32 ug/ml measured after 18 hrs by resazurin dye based assay; assay type: functional, organism-based
Acinetobacter baumannii [13] = experiment: Antibacterial activity against Acinetobacter baumannii ATCC 19606 at 32 ug/ml measured after 18 hrs by resazurin dye based assay; assay type: functional, organism-based; details: ATCC 19606 = CIP 70.34 = JCM 6841
Candida albicans [14] = experiment: Antifungal activity against Candida albicans ATCC 90028 at 32 ug/ml measured after 36 hrs; assay type: functional, organism-based
Pseudomonas aeruginosa [15] = experiment: Potentiation of doxycycline-induced antibacterial activity against Pseudomonas aeruginosa ATCC 27853 assessed as concentration required to restore 2 ug/ml doxycycline activity measured after 18 hrs; assay type: functional
L6 = experiment: Cytotoxicity against rat L6 cells measured after 72 hrs by alamar blue assay; assay type: cell-based; details: L6, 72 h
[16] = Cytotoxicity against HEK293 cells measured after 20 hrs by resazurin dye based fluorescence assay; assay type: cell-based, Homo sapiens; details: human, HEK293 cells
Erythrocyte [17] = experiment: Hemolytic activity against human RBC incubated for 10 mins under shaking condition measured after 1 hr; assay type: ADME, cell-based
Erythrocyte [18] = experiment: Hemolytic activity against human RBC at 32 ug/ml incubated for 10 mins under shaking condition measured after 1 hr; assay type: ADME, cell-based
Cryptococcus neoformans [19] = experiment: Antifungal activity against Cryptococcus neoformans ATCC 208821 at 32 ug/ml measured after 36 hrs by resazurin dye based assay; assay type: functional, organism-based
Escherichia coli [20] = experiment: Potentiation of doxycycline-induced antibacterial activity against Escherichia coli ATCC 25922 assessed as concentration required to restore 2 ug/ml doxycycline activity measured after 18 hrs; assay type: functional
Klebsiella pneumoniae [21] = experiment: Potentiation of doxycycline-induced antibacterial activity against Klebsiella pneumoniae ATCC 700603 assessed as concentration required to restore 2 ug/ml doxycycline activity measured after 18 hrs; assay type: functional
Acinetobacter baumannii [22] = experiment: Potentiation of doxycycline-induced antibacterial activity against Acinetobacter baumannii ATCC 19606 assessed as concentration required to restore 2 ug/ml doxycycline activity measured after 18 hrs; assay type: functional, ATCC 19606 = CIP 70.34 = JCM 6841

Compound	MIC (Escherichia coli [1]) [µM]	MIC (Pseudomonas aeruginosa [2]) [µM]	MIC (Klebsiella pneumoniae [3]) [µM]	MIC (Acinetobacter baumannii [4]) [µM]	MIC (Staphylococcus aureus) [µM]	MIC [9] [µM]	MIC (Candida albicans [10]) [µM]	MIC (Cryptococcus neoformans [11]) [µM]	Activity (Klebsiella pneumoniae [12])	Activity (Acinetobacter baumannii [13])	Activity (Candida albicans [14])	Activity (Pseudomonas aeruginosa [15]) [µM]	pIC50 (L6)	CC50 at 20 h [16] [µM]	Activity (Cryptococcus neoformans [19])	further results
CCn1cc(C(=O)O)c(=O)c2ccc(C)nc21 [NALIDIXIC ACID]	> 200	> 200	100 (≈ 23.2 µg/mL)	> 200												Activity (Pseudomonas aeruginosa [5]): 50 µM; Activity (Escherichia coli [6]): >200 µM; Activity (Klebsiella pneumoniae [7]): 25 µM; Activity (Acinetobacter baumannii [8]): 200 µM
O=C(NCCCCNCCCNC(=O)C(=O)c1c[nH]c2cc(Br)ccc12)C(=O)c1c[nH]c2cc(Br)ccc12	> 200	50 (≈ 32.3 µg/mL)	> 50	> 50	3.12 (≈ 2.02 µg/mL)	3.12 (≈ 2.02 µg/mL)	> 50	50 (≈ 32.3 µg/mL)	inactive	inactive	inactive	>200	5.06	2.32		HC10 (Erythrocyte [17]): > 50 µM; Activity (Erythrocyte [18]): Non-Toxic
O=C(NCCCNCCNC(=O)C(=O)c1c[nH]c2cc(Br)ccc12)C(=O)c1c[nH]c2cc(Br)ccc12	> 200	> 200	> 52	> 52	12.5 (≈ 7.72 µg/mL)	50 (≈ 30.9 µg/mL)	> 52	> 52	inactive	inactive	inactive	>200	4.05	> 52	inactive	
O=C(NCCCCNC(=O)C(=O)c1c[nH]c2cc(Br)ccc12)C(=O)c1c[nH]c2cc(Br)ccc12	> 200	> 200	> 54	> 54	> 200	> 200	> 54	> 54	inactive	inactive	inactive	>200	< 3.82	> 54	inactive	
O=C(NCCCNCCCCCCCCNCCCNC(=O)C(=O)c1c[nH]c2cc(Br)ccc12)C(=O)c1c[nH]c2cc(Br)ccc12.O=C(O)C(F)(F)F.O=C(O)C(F)(F)F	50	6.25	> 32.4	> 32.4	50	12.5	8.11	32.4	inactive	inactive		25	5.25	6.2		HC10 (Erythrocyte [17]): > 32 µM; Activity (Erythrocyte [18]): Non-Toxic
C[C@H]1c2cccc(O)c2C(=O)C2=C(O)[C@]3(O)C(=O)C(C(N)=O)=C(O)[C@@H](N(C)C)[C@@H]3[C@@H](O)[C@@H]21.O [DOXYCYCLINE]	50	25	25	12.5								12.5				Activity (Escherichia coli [20]): 6.25 µM; Activity (Klebsiella pneumoniae [21]): 6.25 µM; Activity (Acinetobacter baumannii [22]): 25 µM
O=C(NCCN1CCOCC1)C(=O)c1c[nH]c2cc(Br)ccc12	> 200	> 200	> 84	> 84	> 200	12.5 (≈ 4.75 µg/mL)	> 84	> 84	inactive	inactive	inactive	>200	3.80	> 84	inactive	
